The test deals with T1, androgen receptor (AR) splicing variant AR-v7 (Homo sapiens, UniProt P10275).
T1 construct: The degradation activity of compounds on AR-v7 in 22RV1 cells; host or cells: 22RV1 cells
T1 sequence (P10275 1-644 isoform P10275-3): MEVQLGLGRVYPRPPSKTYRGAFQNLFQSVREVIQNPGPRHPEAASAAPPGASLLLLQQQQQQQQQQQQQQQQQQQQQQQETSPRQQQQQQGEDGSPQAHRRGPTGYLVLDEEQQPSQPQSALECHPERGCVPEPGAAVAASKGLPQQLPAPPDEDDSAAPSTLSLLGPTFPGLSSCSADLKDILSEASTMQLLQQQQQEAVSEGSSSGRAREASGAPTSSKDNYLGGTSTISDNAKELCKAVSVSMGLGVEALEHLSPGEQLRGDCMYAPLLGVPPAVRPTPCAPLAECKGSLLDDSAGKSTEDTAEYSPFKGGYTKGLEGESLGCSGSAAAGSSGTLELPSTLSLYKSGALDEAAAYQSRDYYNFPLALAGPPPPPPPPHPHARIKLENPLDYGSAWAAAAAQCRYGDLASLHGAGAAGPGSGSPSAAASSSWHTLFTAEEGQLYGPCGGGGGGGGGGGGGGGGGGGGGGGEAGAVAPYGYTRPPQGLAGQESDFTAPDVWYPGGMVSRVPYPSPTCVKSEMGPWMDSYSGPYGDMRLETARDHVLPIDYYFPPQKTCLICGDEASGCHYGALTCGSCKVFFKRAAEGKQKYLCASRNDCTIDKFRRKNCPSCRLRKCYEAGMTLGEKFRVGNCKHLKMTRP
Nature of the test: Degradation activity on androgen receptor splicing variant AR-v7 in 22RV1 cells (ELISA). It counts as cell-based. To be noted: AR-v7 degradation in 22RV1 cells, 48 h. Background: ELISA stands for enzyme-linked immunosorbent assay.

As for `Cc1nc(-c2ncc(Oc3ccc(C(C)(C)c4ccc(OC[C@@H]5CCN5c5ccc6c(c5)C(=O)N(C5CCC(=O)NC5=O)C6=O)cc4)cc3)cn2)no1` (stereo partly drawn) [Example 326, 2-(2,6-dioxopiperidin-3-yl)-5-((S)-2-((4-(2-(4-((2-(5-methyl-1,2,4-oxadiazol-3-yl)pyrimidin-5-yl)oxy)phenyl)propan-2-yl)phenoxy)methyl)azetidin-1-yl)isoindolin-1,3-dione], the DC50 (usually the concentration giving 50% degradation) (class symbols) was in the range of 11 to 100 nM.

`Cc1nc(-c2cnc(Oc3ccc(C(C)(C)c4ccc(O[C@H]5C[C@H](Nc6ccc7c(c6)C(=O)N(C6CCC(=O)NC6=O)C7=O)C5)cc4)cc3)nc2)no1` (some centres unmarked) [Example 327] registered a DC50 (class symbols) of 11 to 100 nM.

`CC(C)(c1ccc(Oc2ncc(-n3nccn3)cn2)cc1)c1ccc(O[C@H]2C[C@@H](Nc3ccc4c(c3)C(=O)N(C3CCC(=O)NC3=O)C4=O)C2)cc1` (some centres unmarked) [Example 329]: the DC50 (class symbols) lay in the range of 11 to 100 nM.

Where the note is “class symbols”, `Cc1nc(-c2ccc(Oc3ccc(C(C)(C)c4ccc(O[C@H]5C[C@H](Nc6ccc7c(c6)C(=O)N(C6CCC(=O)NC6=O)C7=O)C5)cc4)cc3)cc2)no1` (some centres unmarked) [Example 332, 2-(2,6-dioxopiperidin-3-yl)-5-((1r,3r)-3-(4-(2-(4-(4-(5-methyl-1,2,4-oxadiazol-3-yl)phenoxy)phenyl)propan-2-yl)phenoxy)cyclobutyl)aminoisoindolin-1,3-dione] returned a half-maximal degradation concentration (DC50) of 11 to 100 nM.

In turn, `CC(C)(c1ccc(Oc2ccc(-n3nccn3)cc2)cc1)c1ccc(O[C@H]2C[C@H](Nc3ccc4c(c3)C(=O)N(C3CCC(=O)NC3=O)C4=O)C2)cc1` (some centres unmarked) [Example 334] yielded a DC50 (class symbols) of 11 to 100 nM.

`Cc1nc(-c2ccc(Oc3ccc(C(C)(C)c4ccc(OC5CC(Nc6ccc7c(c6)C(=O)N(C6CCC(=O)N(C)C6=O)C7=O)C5)cc4)cc3)nn2)no1` (centres unmarked) [Example 335, 5-((1r,3r)-3-(4-(2-(4-((6-(5-methyl-1,2,4-oxadiazol-3-yl)pyridazine-3-yl)oxy)phenyl)propan-2-yl)phenoxy)cyclobutyl)amino)-2-(1-methyl-2,6-dioxopiperidin-3-yl)isoindolin-1,3-dione]: the DC50 (class symbols) lay within 101 to 1000 nM.

`Cc1nc(-c2cnc(Oc3ccc(C(C)(C)c4ccc(O[C@H]5C[C@@H](Nc6ccc7c(c6)C(=O)N(C6CCC(=O)NC6=O)C7=O)C5)cc4)cc3)nc2)no1` (some centres unmarked) [Example 336] showed a 50% degradation concentration (DC50) (class symbols) of 11 to 100 nM.

In turn, `Cc1nc(-c2ccc(Oc3ccc(C(C)(C)c4ccc(O[C@H]5C[C@@H](Nc6ccc7c(c6)C(=O)N(C6CCC(=O)NC6=O)C7=O)C5)cc4)cc3)nn2)no1` (some centres unmarked) [Example 337] showed a DC50 (class symbols) of 11 to 100 nM.

`CC(O)c1ncc(Oc2ccc(C(C)(C)c3ccc(OC[C@@H]4CCN4c4ccc5c(c4)C(=O)N(C4CCC(=O)NC4=O)C5=O)cc3)cc2)cn1` (some centres unmarked) [Example 340] returned a 50% degradation concentration (DC50) (class symbols) of 11 to 100 nM.

`CC(=O)c1ncc(Oc2ccc(C(C)(C)c3ccc(OC[C@@H]4CCN4c4ccc5c(c4)C(=O)N(C4CCC(=O)NC4=O)C5=O)cc3)cc2)cn1` (stereo partly drawn) [Example 341, 5-((S)-2-((4-(2-(4-((2-acetylpyrimidin-5-yl)oxy)phenyl)propan-2-yl)phenoxy)methyl)azetidin-1-yl)-2-(2,6-dioxopiperidin-3-yl)isoindolin-1,3-dione] gave a DC50 (class symbols) of 11 to 100 nM.

`CC(=O)c1nccc(COc2ccc(C(C)(C)c3ccc(OCCCCCNc4ccc5c(c4)C(=O)N(C4CCC(=O)NC4=O)C5=O)cc3)cc2)n1` (centres unmarked) [Example 342, 5-((5-(4-(2-(4-((2-acetylpyrimidin-4-yl)methoxy)phenyl)isopropan-2-yl)phenoxy)pentyl)amino)-2-(2,6-dioxopiperidin-3-yl)isoindolin-1,3-dione] returned a DC50 (numeric values) greater than 10000 nM.

Compound `CC(=O)c1nccc(COc2ccc(C(C)(C)c3ccc(OCCCNc4cccc5c4C(=O)N(C4CCC(=O)NC4=O)C5=O)cc3)cc2)n1` (centres unmarked) [Example 344, 4-((3-(4-(2-(4-((2-acetylpyrimidin-4-yl)methoxy)phenyl)isopropan-2-yl)phenoxy)propyl)amino)-2-(2,6-dioxopiperidin-3-yl)isoindolin-1,3-dione] registered a DC50 (class symbols) of 1000 to 5000 nM.

The compound `CC(O)c1nccc(COc2ccc(C(C)(C)c3ccc(OCCCNc4cccc5c4C(=O)N(C4CCC(=O)NC4=O)C5=O)cc3)cc2)n1` (centres unmarked) [Example 346, 2-(2,6-dioxopiperidin-3-yl)-4-((3-(4-(2-(4-((2-(1-hydroxylethyl)pyrimidin-4-yl)methoxy)phenyl)isopropan-2-yl)phenoxy)propyl)amino)isoindolin-1,3-dione] registered a DC50 (class symbols) of 1000 to 5000 nM.

Where the note is “class symbols”, `CC(=O)c1cc(COc2ccc(C(C)(C)c3ccc(OCCCCCCCCOCCCCNc4ccc5c(c4)C(=O)N(C4CCC(=O)NC4=O)C5=O)cc3)cc2)ccn1` (centres unmarked) [Example 347, 5-((4-((8-(4-(2-(4-((2-acetylpyridin-4-yl)methoxy)phenyl)isopropan-2-yl)phenoxy)octyl)oxy)butyl)amino)-2-(2,6-dioxopiperidin-3-yl)isoindolin-1,3-dione] displayed a 50% degradation concentration (DC50) of 1000 to 5000 nM.

The compound `CC(=O)c1cc(COc2ccc(C(C)(C)c3ccc(OCCCCCCCCOCCCCNc4cccc5c4C(=O)N(C4CCC(=O)NC4=O)C5=O)cc3)cc2)ccn1` (centres unmarked) [Example 348, 4-((4-((8-(4-(2-(4-((2-acetylpyridin-4-yl)methoxy)phenyl)isopropan-2-yl)phenoxy)octyl)oxy)butyl)amino)-2-(2,6-dioxopiperidin-3-yl)isoindolin-1,3-dione] gave a DC50 (class symbols) of 1000 to 5000 nM.

Take `CC(=O)c1cccc(COc2ccc(C(C)(C)c3ccc(OCCCCCCCCOCCCCNc4ccc5c(c4)C(=O)N(C4CCC(=O)NC4=O)C5=O)cc3)cc2)n1` (centres unmarked) [Example 349, 5-((4-((8-(4-(2-(4-((6-acetylpyridin-2-yl)methoxy)phenyl)isopropan-2-yl)phenoxy)octyl)oxy)tert-butyl)amino)-2-(2,6-dioxopiperidin-3-yl)isoindolin-1,3-dione]: the DC50 (numeric values) was greater than 10000 nM.

For `NC(=O)c1noc(COc2ccc(C3(c4ccc(OCCCNc5ccc6c(c5)C(=O)N(C5CCC(=O)NC5=O)C6=O)cc4)CCC3)cc2)n1` (centres unmarked) [Example 352, 5-((4-(1-(4-(3-((2-(2,6-dioxopiperidin-3-yl)-1,3-dioxoisoindolin-5-yl)amino)propoxy)phenyl)cyclobutyl)phenoxy)methyl)-1,2,4-oxadiazol-3-carbonylamine], the DC50 (class symbols) lay in the range of 11 to 100 nM.

With `CC(=O)c1nccc(COc2ccc(C(C)(C)c3ccc(O[C@H]4CC[C@H](Nc5ccc6c(c5)C(=O)N(C5CCC(=O)NC5=O)C6=O)CC4)cc3)cc2)n1` (some centres unmarked) [Example 353, 5-(((1r,4r)-4-(4-(2-(4-((2-acetylpyrimidin-4-yl)methoxy)phenyl)isopropan-2-yl)phenoxy)cyclohexyl)amino)-2-(2,6-dioxopiperidin-3-yl)isoindolin-1,3-dione], the DC50 (class symbols) was in the range of 1000 to 5000 nM.

In the case of `CC(O)c1nccc(COc2ccc(C(C)(C)c3ccc(O[C@H]4CC[C@H](Nc5ccc6c(c5)C(=O)N(C5CCC(=O)NC5=O)C6=O)CC4)cc3)cc2)n1` (some centres unmarked) [Example 354, 2-(2,6-dioxopiperidin-3-yl)-5-(((1r,4r)-4-(4-(2-(4-((2-(1-hydroxylethyl)pyrimidin-4-yl)methoxy)phenyl)isopropan-2-yl)phenoxy)cyclohexyl)amino)isoindolin-1,3-dione], the 50% degradation concentration (DC50) (class symbols) lay within 1000 to 5000 nM.

Turning to `CC(C)(c1ccc(OCc2ccnc(OC3CCOCC3)n2)cc1)c1ccc(O[C@H]2C[C@H](Nc3ccc4c(c3)C(=O)N(C3CCC(=O)NC3=O)C4=O)C2)cc1` (some centres unmarked) [Example 368, 2-(2,6-dioxopiperidin-3-yl)-5-(((1r,3r)-3-(4-(2-(4-((2-((tetrahydro-2H-pyran-4-yl)oxy)pyrimidin-4-yl)methoxy)phenyl)isopropan-2-yl)phenoxy)cyclobutyl)amino)isoindolin-1,3-dione], the DC50 (class symbols) was 11 to 100 nM.

Turning to `O=C1CCC(N2C(=O)c3ccc(N[C@H]4C[C@H](Oc5ccc(C6(c7ccc(Oc8ccc(-n9nccn9)nn8)cc7)CC6)cc5)C4)cc3C2=O)C(=O)N1` (some centres unmarked) [Example 374, 5-(((1r,3r)-3-(4-(1-(4-((6-(2H-1,2,3-triazole-2-yl)pyridazine-3-yl)oxy)phenyl)cyclopropyl)phenoxy)cyclobutyl)amino)-2-(2,6-dioxopiperidin-3-yl)isoindolin-1,3-dione], the DC50 (class symbols) lay in the range of 11 to 100 nM.

For the setting “class symbols”, `O=C1CCC(N2C(=O)c3ccc(N[C@H]4C[C@H](Oc5ccc(C6(c7ccc(Oc8ccc(-n9ccnn9)nn8)cc7)CC6)cc5)C4)cc3C2=O)C(=O)N1` (some centres unmarked) [Example 375, 5-(((1r,3r)-3-(4-(1-(4-((6-(1H-1,2,3-triazole-1-yl)pyridazine-3-yl)oxy)phenyl)cyclopropyl)phenoxy)cyclobutyl)amino)-2-(2,6-dioxopiperidin-3-yl)isoindolin-1,3-dione] returned a DC50 of 11 to 100 nM.

The compound `Cc1nc(-c2ccc(Oc3ccc(C4(c5ccc(O[C@H]6C[C@H](Nc7ccc8c(c7)C(=O)N(C7CCC(=O)NC7=O)C8=O)C6)cc5)CC4)cc3)nn2)no1` (some centres unmarked) [Example 376, 2-(2,6-dioxopiperidin-3-yl)-5-(((1r,3r)-3-(4-(1-(4-((6-(5-methyl-1,2,4-oxadiazol-3-yl)pyridazine-3-yl)oxy)phenyl)cyclopropyl)phenoxy)cyclobutyl)amino)isoindolin-1,3-dione] gave a DC50 (class symbols) of 11 to 100 nM.

(Values after US20250051347A1, “BIFUNCTIONAL CHIMERIC HETEROCYCLIC COMPOUND AND USE THEREOF AS ANDROGEN RECEPTOR DEGRADER” (Hinova Pharmaceuticals, Inc., priority 2021, published 2025).)
